Test results reported in US7786120B2, “Pyridones useful as inhibitors of kinases” (Vertex Pharmaceuticals Incorporated, priority 2005, dated 2010).

Columns and labels:
Assay type in all cases: biochemical
FLT-3 = biological target: T1, FLT-3 (Homo sapiens, UniProt P36888); assay: FLT-3 kinase inhibition (assays similar to the ones described)
T1 sequence (P36888 27-993): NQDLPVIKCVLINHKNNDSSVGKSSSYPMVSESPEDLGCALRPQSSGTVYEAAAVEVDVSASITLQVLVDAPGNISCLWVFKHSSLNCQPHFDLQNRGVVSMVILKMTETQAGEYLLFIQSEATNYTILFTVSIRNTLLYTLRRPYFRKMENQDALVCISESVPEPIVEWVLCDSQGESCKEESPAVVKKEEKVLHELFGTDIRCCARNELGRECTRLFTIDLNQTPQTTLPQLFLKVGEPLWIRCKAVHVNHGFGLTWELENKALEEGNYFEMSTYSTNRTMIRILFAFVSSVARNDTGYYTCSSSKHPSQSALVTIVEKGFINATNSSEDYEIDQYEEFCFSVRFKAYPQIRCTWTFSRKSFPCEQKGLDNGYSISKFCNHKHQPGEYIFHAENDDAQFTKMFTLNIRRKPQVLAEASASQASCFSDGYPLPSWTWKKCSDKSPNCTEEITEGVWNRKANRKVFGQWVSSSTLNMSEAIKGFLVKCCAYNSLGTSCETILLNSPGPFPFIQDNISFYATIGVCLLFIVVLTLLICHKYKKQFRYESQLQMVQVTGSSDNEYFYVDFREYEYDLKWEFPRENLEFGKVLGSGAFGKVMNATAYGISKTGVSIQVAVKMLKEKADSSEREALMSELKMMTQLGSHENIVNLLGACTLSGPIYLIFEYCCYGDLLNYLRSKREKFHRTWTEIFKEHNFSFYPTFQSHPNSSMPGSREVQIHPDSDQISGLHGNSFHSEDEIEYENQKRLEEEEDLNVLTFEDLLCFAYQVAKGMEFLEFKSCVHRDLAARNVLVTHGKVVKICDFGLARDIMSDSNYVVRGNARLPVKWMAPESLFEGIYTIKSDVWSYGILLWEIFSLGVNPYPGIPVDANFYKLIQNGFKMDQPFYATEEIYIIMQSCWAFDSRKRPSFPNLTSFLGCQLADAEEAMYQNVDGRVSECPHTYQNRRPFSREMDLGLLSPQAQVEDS
Description: (§1) Compound I.9 was tested in assays similar to the ones described herein and found to inhibit FLT-3, JAK2, and JAK3 kinases.

JAK2 = JAK2 (Homo sapiens, UniProt O60674); assay: JAK2 kinase inhibition (assays similar to the ones described)
Description: as §1

JAK3 = biological target: T2, JAK3 (Homo sapiens, UniProt P52333); assay: JAK3 kinase inhibition (assays similar to the ones described)
T2 sequence (P52333 1-1124): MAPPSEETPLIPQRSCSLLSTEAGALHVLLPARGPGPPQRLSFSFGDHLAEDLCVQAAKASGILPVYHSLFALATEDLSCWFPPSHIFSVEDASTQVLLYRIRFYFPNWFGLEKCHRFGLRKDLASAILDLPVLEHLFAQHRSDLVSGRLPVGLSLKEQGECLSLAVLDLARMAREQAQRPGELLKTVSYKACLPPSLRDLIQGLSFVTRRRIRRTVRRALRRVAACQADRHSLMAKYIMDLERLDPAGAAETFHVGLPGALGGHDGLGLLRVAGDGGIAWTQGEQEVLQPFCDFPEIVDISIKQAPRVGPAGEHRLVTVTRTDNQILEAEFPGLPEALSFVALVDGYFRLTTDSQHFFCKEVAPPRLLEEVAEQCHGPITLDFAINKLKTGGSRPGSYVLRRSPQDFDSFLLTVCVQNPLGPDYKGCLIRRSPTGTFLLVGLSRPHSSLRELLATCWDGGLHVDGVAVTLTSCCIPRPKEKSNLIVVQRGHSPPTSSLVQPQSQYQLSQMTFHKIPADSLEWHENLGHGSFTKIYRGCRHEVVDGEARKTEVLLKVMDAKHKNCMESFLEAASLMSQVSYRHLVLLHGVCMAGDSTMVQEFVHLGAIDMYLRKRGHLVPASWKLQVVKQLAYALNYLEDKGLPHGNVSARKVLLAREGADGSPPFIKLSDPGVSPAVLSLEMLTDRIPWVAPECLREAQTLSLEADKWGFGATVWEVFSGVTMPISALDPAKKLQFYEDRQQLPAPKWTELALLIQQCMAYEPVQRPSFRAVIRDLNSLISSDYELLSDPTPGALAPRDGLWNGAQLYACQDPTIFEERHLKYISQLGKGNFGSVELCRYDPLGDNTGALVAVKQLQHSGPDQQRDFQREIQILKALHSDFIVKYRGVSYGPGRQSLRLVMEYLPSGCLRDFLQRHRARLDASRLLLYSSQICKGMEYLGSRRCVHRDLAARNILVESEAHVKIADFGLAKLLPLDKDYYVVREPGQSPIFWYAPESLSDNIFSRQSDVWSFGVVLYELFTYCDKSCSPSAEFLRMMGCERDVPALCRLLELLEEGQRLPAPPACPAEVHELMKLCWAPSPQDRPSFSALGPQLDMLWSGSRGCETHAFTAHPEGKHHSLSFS
Description: as §1

human Itk kinase = biological target: T3, human Itk kinase (Homo sapiens, UniProt Q08881); assay: Itk Inhibition Assay (radioactivity-based or spectrophotometric); conditions: inhibition of human Itk kinase
T3 sequence (Q08881 1-620): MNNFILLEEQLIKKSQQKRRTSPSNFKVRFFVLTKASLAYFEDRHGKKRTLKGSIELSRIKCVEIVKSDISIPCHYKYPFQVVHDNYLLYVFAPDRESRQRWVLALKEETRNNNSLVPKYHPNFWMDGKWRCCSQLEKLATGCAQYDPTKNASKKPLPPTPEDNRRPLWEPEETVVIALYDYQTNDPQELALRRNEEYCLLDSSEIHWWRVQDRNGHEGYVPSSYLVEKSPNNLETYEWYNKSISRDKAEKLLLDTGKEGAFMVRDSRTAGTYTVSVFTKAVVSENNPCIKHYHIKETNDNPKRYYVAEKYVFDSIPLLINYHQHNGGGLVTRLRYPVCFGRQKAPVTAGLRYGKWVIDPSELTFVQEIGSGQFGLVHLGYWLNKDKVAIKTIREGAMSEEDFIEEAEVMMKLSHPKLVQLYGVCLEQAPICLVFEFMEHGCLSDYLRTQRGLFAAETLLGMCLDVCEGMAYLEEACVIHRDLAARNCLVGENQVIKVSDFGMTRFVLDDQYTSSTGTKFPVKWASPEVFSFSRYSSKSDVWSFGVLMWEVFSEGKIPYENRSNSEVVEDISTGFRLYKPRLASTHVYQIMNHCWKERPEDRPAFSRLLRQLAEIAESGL
Description: The compounds of the present invention can be evaluated as inhibitors of human Itk kinase using either a radioactivity-based or a spectrophotometric assay. In general, compounds of the invention, including compounds in Table 1, are effective for the inhibition of Itk. Specifically, compounds I.1 to I.5 and compound I.7 have a Ki value of <1 μM and compounds I.6 and I.8 have a Ki value of >1 μM.
Assays were carried out in a mixture of 100 mM HEPES (pH 7.5), 10 mM MgCl2, 25 mM NaCl, 0.01% BSA and 1 mM DTT. Final substrate concentrations were 15 μM [γ-^33P]ATP (400 μCi ^33P ATP/μmol ATP, Amersham Pharmacia Biotech/Sigma Chemicals) and 2 μM peptide (SAM68 protein Δ332-443). Assays were carried out at 25° C. in the presence of 30 nM Itk. An assay stock buffer solution was prepared containing all of the reagents listed above, with the exception of ATP and the test compound of interest. 50 μL of the stock solution was placed in a 96 well plate followed by addition of 1.5 μL of DMSO stock containing serial dilutions of the test compound (typically starting from a final concentration of 15 μM with 2-fold serial dilutions) in duplicate (final DMSO concentration 1.5%). The plate was pre-incubated for 10 minutes at 25° C. and the reaction initiated by addition of 50 μL [γ-^33P]ATP (final concentration 15 μM).
The reaction was stopped after 10 minutes by the addition of 50 μL of a TCA/ATP mixture (20% TCA, 0.4 mM ATP). A Unifilter GF/C 96 well plate (Perkin Elmer Life Sciences, Cat no. 6005174) was pretreated with 5 μL Milli Q water prior to the addition of the entire reaction mixture (150 μL). […]
IC50 data were calculated from non-linear regression analysis of the initial rate data using the Prism software package (GraphPad Prism version 3.0cx for Macintosh, GraphPad Software, San Diego, Calif., USA). […]
Ki(app) data were calculated from non-linear regression analysis of the initial rate data using the Prism software package (GraphPad Prism version 3.0cx for Macintosh, GraphPad Software, San Diego, Calif., USA). […]

JAK2, sequence (O60674 whole entry, species assumed): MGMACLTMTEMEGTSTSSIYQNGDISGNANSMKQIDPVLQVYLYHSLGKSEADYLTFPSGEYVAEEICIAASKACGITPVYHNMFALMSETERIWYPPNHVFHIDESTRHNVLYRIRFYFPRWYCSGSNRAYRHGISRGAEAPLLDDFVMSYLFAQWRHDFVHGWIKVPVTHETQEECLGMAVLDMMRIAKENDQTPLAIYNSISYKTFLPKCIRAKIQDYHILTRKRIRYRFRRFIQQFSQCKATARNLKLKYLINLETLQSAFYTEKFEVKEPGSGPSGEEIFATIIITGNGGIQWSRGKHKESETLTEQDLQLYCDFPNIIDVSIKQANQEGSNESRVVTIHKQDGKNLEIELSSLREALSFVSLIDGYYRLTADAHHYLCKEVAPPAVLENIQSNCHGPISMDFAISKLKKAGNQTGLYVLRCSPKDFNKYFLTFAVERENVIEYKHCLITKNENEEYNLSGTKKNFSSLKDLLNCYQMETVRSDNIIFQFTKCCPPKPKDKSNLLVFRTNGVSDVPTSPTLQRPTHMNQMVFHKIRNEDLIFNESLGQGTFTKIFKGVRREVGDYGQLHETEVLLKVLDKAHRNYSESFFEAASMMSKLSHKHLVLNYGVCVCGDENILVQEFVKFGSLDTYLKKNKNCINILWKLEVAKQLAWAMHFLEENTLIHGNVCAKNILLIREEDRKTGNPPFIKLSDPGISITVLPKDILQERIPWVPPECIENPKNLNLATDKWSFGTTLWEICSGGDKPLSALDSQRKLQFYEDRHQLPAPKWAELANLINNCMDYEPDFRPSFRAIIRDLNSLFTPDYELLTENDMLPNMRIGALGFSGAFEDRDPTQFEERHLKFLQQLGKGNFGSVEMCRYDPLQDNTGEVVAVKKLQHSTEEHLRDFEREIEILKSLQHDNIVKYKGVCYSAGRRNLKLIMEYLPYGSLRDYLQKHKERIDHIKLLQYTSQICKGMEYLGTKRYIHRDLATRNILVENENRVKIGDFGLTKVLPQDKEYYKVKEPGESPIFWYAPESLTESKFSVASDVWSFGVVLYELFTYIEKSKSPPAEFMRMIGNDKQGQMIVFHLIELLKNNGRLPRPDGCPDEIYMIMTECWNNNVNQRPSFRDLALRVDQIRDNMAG

Row | inhibition of FLT-3 kinase (in words) (FLT-3) | inhibition of JAK2 kinase (in words) (JAK2) | inhibition of JAK3 kinase (in words) (JAK3) | Ki (human Itk kinase) [µM] | Compound
1 | inhibit | inhibit | inhibit | – | O=c1[nH]cc(-c2ccccc2Cl)cc1/C=C/c1cnc2ccccn12 [I.9]
2 | – | – | – | > 1 | CNc1cncc(-c2c[nH]c(=O)c(/C=C3\C(=O)Nc4ccccc43)c2)n1 [I.6, 3-((1,2-dihydro-5-(6-(methylamino)pyrazin-2-yl)-2-oxopyridin-3-yl)methylene)indolin-2-one]
3 | – | – | – | > 1 | CNc1cncc(-c2c[nH]c(=O)c(/C=C/c3cc(OC)ccc3[N+](=O)[O-])c2)n1 [I.8]
4 | – | – | – | < 1 | CNc1cncc(-c2c[nH]c(=O)c(/C=C/c3cc(CN4CCN(S(C)(=O)=O)CC4)ccc3[N+](=O)[O-])c2)n1 [I.7]
